# Measured values reported in patent EP0160578A1, “1,8-Naphthyridine derivatives” (DAIICHI SEIYAKU CO., LTD., priority 1984, dated 1985).
# Assays:
# Assay in all cases: Antibacterial activity, dilution method in Muller-Hinton Bouillon (MIC)
# Type in all cases: cell-based
# Pr. vulgaris, 3167 = settings: Proteus vulgaris, 10^6/ml bacteria, 37°C, 18 hours, read-out: Minimal Inhibitory Concentration (MIC)
# Protocol: (§1) The antibacterial activity of the compounds of the present invention was determined by the standard method of the Japan Society of Chemotherapy: according to the dilution method in Muller-Hinton Bouillon, 10^6/ml of bacteria were seeded and incubated at 37°C for 18 hours.
# Ps. cepacia, IID1340 = settings: Burkholderia cepacia, 10^6/ml bacteria, 37°C, 18 hours, read-out: Minimal Inhibitory Concentration (MIC)
# Protocol: as §1
# S. aureus, Smith = settings: Staphylococcus aureus, 10^6/ml bacteria, 37°C, 18 hours, read-out: Minimal Inhibitory Concentration (MIC)
# Protocol: as §1
# Pr. mirabilis, 1287 = settings: Proteus mirabilis, 10^6/ml bacteria, 37°C, 18 hours, read-out: Minimal Inhibitory Concentration (MIC)
# Protocol: as §1
# Ps. aeruginosa, 2128 = settings: Pseudomonas aeruginosa, 10^6/ml bacteria, 37°C, 18 hours, read-out: Minimal Inhibitory Concentration (MIC)
# Protocol: as §1
# Ps. maltophilia, IID1275 = settings: Stenotrophomonas maltophilia, 10^6/ml bacteria, 37°C, 18 hours, read-out: Minimal Inhibitory Concentration (MIC)
# Protocol: as §1
# Str. faecalis, ATCC19433 = settings: Enterococcus faecalis, 10^6/ml bacteria, 37°C, 18 hours, read-out: Minimal Inhibitory Concentration (MIC)
# Protocol: as §1
# Ser. marcescens, 13001 = settings: Serratia marcescens, 10^6/ml bacteria, 37°C, 18 hours, read-out: Minimal Inhibitory Concentration (MIC)
# Protocol: as §1
# Ps. aeruginosa, 2063 = settings: Pseudomonas aeruginosa, 10^6/ml bacteria, 37°C, 18 hours, read-out: Minimal Inhibitory Concentration (MIC)
# Protocol: as §1
# Sh. flexneri, 2a5503 = settings: Shigella flexneri, 10^6/ml bacteria, 37°C, 18 hours, read-out: Minimal Inhibitory Concentration (MIC)
# Protocol: as §1
# E. coli, NIHJ = settings: Escherichia coli, 10^6/ml bacteria, 37°C, 18 hours, read-out: Minimal Inhibitory Concentration (MIC)
# Protocol: as §1
# Ps. aeruginosa, 2131 = settings: Pseudomonas aeruginosa, 10^6/ml bacteria, 37°C, 18 hours, read-out: Minimal Inhibitory Concentration (MIC)
# Protocol: as §1
# S. epidermis, 56556 = settings: 10^6/ml bacteria, 37°C, 18 hours, read-out: Minimal Inhibitory Concentration (MIC)
# Protocol: as §1
# Str. pyogenes, G-36 = settings: Streptococcus pyogenes, G36, 10^6/ml bacteria, 37°C, 18 hours, read-out: Minimal Inhibitory Concentration (MIC)
# Protocol: as §1
SMILES,"MIC (Pr. vulgaris, 3167) [µg/mL]","MIC (Ps. cepacia, IID1340) [µg/mL]","MIC (S. aureus, Smith) [µg/mL]","MIC (Pr. mirabilis, 1287) [µg/mL]","MIC (Ps. aeruginosa, 2128) [µg/mL]","MIC (Ps. maltophilia, IID1275) [µg/mL]","MIC (Str. faecalis, ATCC19433) [µg/mL]","MIC (Ser. marcescens, 13001) [µg/mL]","MIC (Ps. aeruginosa, 2063) [µg/mL]","MIC (Sh. flexneri, 2a5503) [µg/mL]","MIC (E. coli, NIHJ) [µg/mL]","MIC (Ps. aeruginosa, 2131) [µg/mL]","MIC (S. epidermis, 56556) [µg/mL]","MIC (Str. pyogenes, G-36) [µg/mL]"
"CCn1cc(C(=O)O)c(=O)c2cc(F)c(N3CCNCC3)nc21 [Control Compound, 1-ethyl-6-fluoro-7-(1-piperazinyl)-1,4-dihydro-4-oxo-1,8-naphthyridine-3-carboxylic acid, reference compound]",0.2,50,0.78,0.2,0.78,0.78,6.25,0.2,0.78,0.2,0.2,0.2,0.78,25
"O=C(O)c1cn(C2CC2)c2nc(N3CCNCC3)c(F)cc2c1=O [No. 1, 1-cyclopropyl-6-fluoro-7-(1-piperazinyl)-1,4-dihydro-4-oxo-1,8-naphthyridine-3-carboxylic acid]",≤ 0.05,3.13,0.39,≤ 0.05,0.1,0.78,1.56,≤ 0.05,0.1,≤ 0.05,≤ 0.05,0.1,0.39,6.25
"NC1CCN(c2nc3c(cc2F)c(=O)c(C(=O)O)cn3C2CC2)C1 (stereo not shown) [No. 2, 1-cyclopropyl-6-fluoro-7-(3-amino-1-pyrrolidinyl)-1,4-dihydro-4-oxo-1,8--naphthyridine-3-carboxylic acid]",≤ 0.05,0.39,0.1,≤ 0.05,≤ 0.05,0.39,0.39,≤ 0.05,≤ 0.05,≤ 0.05,≤ 0.05,0.1,0.1,0.78
"O=C(O)c1cn(C2CC2)c2nc(N3CCC(O)C3)c(F)cc2c1=O (stereo not drawn) [No. 3, l-cyclopropyl-6-fluoro-7-(3-hydroxy-l-pyrrolidinyl)-1,4-dihydro-4-oxo-1,8-naphthyridine-3-carboxylic acid]",≤ 0.05,0.39,≤ 0.05,≤ 0.05,0.39,0.39,0.39,0.1,0.39,≤ 0.05,≤ 0.05,0.78,0.1,1.56
"CN1CCN(c2nc3c(cc2F)c(=O)c(C(=O)O)cn3C2CC2)CC1 [No. 4, 1-cyclopropyl-6-fluoro-7-(4-methyl-1-piperazinyl)-1,4-dihydro-4-oxo-1,8-naphthyridine-3-carboxylic acid]",≤ 0.05,1.56,0.2,≤ 0.05,0.2,0.39,3.13,≤ 0.05,0.39,≤ 0.05,≤ 0.05,0.39,0.39,6.25
"O=C(O)c1cn(C2CC2)c2nc(N3CCCNCC3)c(F)cc2c1=O [No. 5, 1-cyclopropyl-6-fluoro-7-(1-homopiperazinyl)-1,4-dihydro-4-oxo-1,8-naphthyridine-3-carboxylic acid]",≤ 0.05,0.78,0.39,0.1,0.1,1.56,6.25,0.1,0.2,≤ 0.05,≤ 0.05,0.2,0.39,12.5
"CN1CCCN(c2nc3c(cc2F)c(=O)c(C(=O)O)cn3C2CC2)CC1 [No. 6, 1-cyclopropyl-6-fluoro-7-(N-methyl-1-homopiperazinyl)-1,4-dihydro-4-oxo-1,8-naphthyridine-3-carboxylic acid]",0.1,0.78,0.39,0.2,0.39,0.39,6.25,0.2,0.78,0.1,≤ 0.05,0.78,0.39,6.25
"CC1CN(c2nc3c(cc2F)c(=O)c(C(=O)O)cn3C2CC2)CCN1 (stereo not shown) [No. 7, 1-cyclopropyl-6-fluoro-7-(3-methyl-1-piperazinyl)-1,4-dihydro-4-oxo-1,8--naphthyridine-3-carboxylic acid]",≤ 0.05,0.39,0.39,0.1,0.2,0.39,3.13,≤ 0.05,0.2,≤ 0.05,≤ 0.05,0.1,0.78,1.56
